Patent EP4389739A1, “MOLECULE HAVING PESTICIDAL UTILITY AND PROCESSES RELATED THERETO” (Corteva Agriscience LLC, priority 2022, dated 2024)

What was measured:
Format in all cases: in vivo
[1] = test system: root lesion nematode (RLN), Pratylechus penetrans; test: Root Lesion Nematode (RLN) in-vitro mortality test; details: mortality after 48 hours, about 25 °C, 0.5% DMSO in water
Description: The following Root Lesion Nematode (RLN) test was conducted to compare the activities of S1, R1, and B1.
We carried out an in-vitro experiment to compare activity of S1, R1, and B1 with each other against the root lesion nematode (RLN), Pratylechus penetrans. Each of S1, R1, and B1 were tested at six rates: 62.5, 15.6, 4, 1, 0.25, and 0 ppm (UTC) with three replications of each treatment. Equal volume of nematode suspension was added to an equal volume of each of S1, R1, and B1 dissolved in 0.5% DMSO (dimethyl sulfoxide) in water in 25 mL vials. The treated nematode suspension was incubated at room temperature (about 25 °C) on a shaker (95 RPM). Aliquots of 1 mL of the nematode suspension was evaluated under a microscope for mortality after 48 hours. RLN were counted, and the number of dead and active nematodes was used to calculate % mortality from which lethal concentration (LC) values were generated.

[2] = test system: root knot nematode (RKN), Meloidogyne incognita; test: Root Knot Nematode (RKN) test on cucumber seedlings in greenhouse, Galling Index converted to % control, EC by probit analysis; details: based on % control from Galling Index, cucumber, 4,000 J2s, 14 days in Greenhouse, about 27 °C
Description: The following Root Knot Nematode (RKN) test was conducted to compare the activities of S1, R1, and B1.
We conducted an experiment to evaluate comparative bioactivity of S1, R1, and B1 against the root knot nematode (RKN), Meloidogyne incognita. Each of S1, R1, and B1 were tested at […]: 125, 62.5, 31.25, 15.6, 7.8, 3.9, and 2 ppm. Cucumber seeds (Cucumis sativus) were planted in a sandy loam soil in 3-inch pots. After 6 days of germination, the seedlings were treated with the test compounds dissolved in 5% acetone in water. The treated plants were inoculated with 4,000 second stage juveniles (J2s) of M. incognita. Each experimental unit was replicated three times. The inoculated plants were kept in a Greenhouse for 14 days (about 27 °C) before evaluating the amount of root damage (galls) called Galling Index (GI) based on a scale of 0 - 10; where 0 = no galls (100% control), and 10 = maximum galls (no control). The GI was converted to % control using the formula (10 - GI) x 10; where GI = Gall Index. Effective concentration (EC) values based on the % control of the nematode by S1, R1 and B1 were calculated by probit analysis.

[3] = test system: soybean cyst nematode (SCN): Heterodera glycines second stage juveniles (J2); test: Soybean Cyst Nematode (SCN) in-vitro mortality test; details: mortality after 48 hours of incubation, about 25 °C, 0.5% DMSO in water; probit analysis
Description: The following Soybean Cyst Nematode (SCN) test was conducted to compare the activities of S1, R1, and B1.
We carried out an in-vitro experiment to compare activity of S1, R1, and B1 with each other against the soybean cyst nematode (SCN): Heterodera glycines second stage juveniles (J2). Each of S1, R1, and B1 were tested at six rates: 62.5, 15.6, 4, 1, 0.25, and 0 ppm (untreated control, UTC) with three replications of each treatment. Equal volume of nematode suspension was added to an equal volume of compound dissolved in 0.5% DMSO (dimethyl sulfoxide) in water. The nematode plus compound was incubated at room temperature (about 25 °C) on a shaker at 95 revolutions per minutes (RPM). Aliquots of 0.5 milliliters (mL) of the nematode suspension were evaluated under a microscope for mortality after 48 hours of incubation. SCN J2s were counted, and the number of dead and active nematodes was used to calculate % SCN mortality which was used to generate lethal concentration (LC) values by probit analysis.

M. incognita = test: Residuality test in soil: treated soil aged four weeks, then cucumber seedlings transplanted and inoculated; details: 1250 g ai/ha applied to bare sandy loam soil, four weeks before transplanting and inoculation; 14 days; four replicates
Description: The molecules in Example Two were compared in a residuality test.
A residuality test was conducted to compare the residual control or persistence of S 1, R1, C1, C2, C3, C4, and C5 in soil. Each compound was applied to a bare sandy loam soil (without plant or nematode) in a 3-inch pot at 1250 g ai/ha. The treated soils were kept in a Greenhouse (temperature 27 °C) under regular irrigation for four weeks. At the end of the four weeks, six-day old cucumber (Cucumis sativus) seedlings were transplanted into the treated soil and inoculated with 4,000 second stage juveniles of M. incognita. Each treatment was replicated four times. The inoculated plants were kept in a Greenhouse for 14 days (temperature 27 °C) before evaluating the amount of root damage (galls) called Galling Index (GI) based on a scale of 0 - 10; where 0 = no galls (100% nematode control), and 10 = maximum galls (no nematode control). The GI were converted to % control using the formula ((10 - GI) x 10); where GI = Gall Index. The data were analyzed by Analysis of Variance using JMP (John's Macintosh Project) statistical software and the means were separated using Tukey's HSD (α = 0.05).

[4] = test system: root knot nematode, Meloidogyne incognita; test: Root knot nematode comparative bioactivity test at a single rate, drench application on cucumber seedlings; details: 600 g ai/ha, 14 days after inoculation, (10 - GI) x 10, three replicates
Description: We carried out an experiment to evaluate comparative bioactivity of S 1, C1, C2, C3, C4, and C5 against the root knot nematode, Meloidogyne incognita. Each compound was tested at 600 grams of active ingredient per hectare (g ai/ha) and was replicated three times. Cucumber seeds (Cucumis sativus) were planted in a sandy loam soil in 3-inch pots. After six (6) days of planting, the seedlings were treated with the test compounds dissolved in 5% acetone in water by drench application. The plants were inoculated with 4,000 second stage juveniles (J2s) of M. incognita. The inoculated plants were kept in a Greenhouse for 14 days (temperature 27 °C) before evaluating the amount of root damage (galls) called Galling Index (GI) based on a scale of 0 - 10; where 0 = no galls (100% nematode control), and 10 = maximum galls (no nematode control). The GI was converted to % nematode control using the formula ((10 - GI) x 10); where GI = Gall Index. The data were analyzed by Analysis of Variance using JMP (John's Macintosh Project) statistical software and the means were separated using Tukey's HSD (α = 0.05).

Row | Compound | LC50 (ppm) [1] | EC50 (ppm) [2] | LC50 (ppm) [3] | Mean Percent Control (M. incognita) | Mean Percent Control [4]
1 | CCC(CC)C(C)NC(=O)c1ccoc1Cl (racemic) [Molecule B1, 2-chloro-N-(3-ethylpentan-2-yl)furan-3-carboxamide] | 24.72 ppm | 16.84 ppm | 23.28 ppm |  | 
2 | CC(C)C[C@H](C)NC(=O)c1ccoc1Cl [Molecule C2] |  |  |  | 25.0% | 54%
3 | CC(C)[C@H](C)NC(=O)c1ccoc1Cl [Molecule C3] |  |  |  | 22.5% | 67%
4 | C[C@H](NC(=O)c1ccoc1Cl)C1CCCCC1 [Molecule C4] |  |  |  | 2.5% | 25%
5 | C[C@H](NC(=O)c1ccoc1Cl)C1CCCC1 [Molecule C5] |  |  |  | 22.5% | 50%
6 | CCC(CC)[C@@H](C)NC(=O)c1ccoc1Cl [Molecule R1, (R)-2-chloro-N-(3-ethylpentan-2-yl)furan-3-carboxamide] | >62.5 ppm | >125 ppm | >62.5 ppm | 7.5% | 
7 | CCC(CC)[C@H](C)NC(=O)c1ccoc1Cl [Molecule S1, (S)-2-chloro-N-(3-ethylpentan-2-yl)furan-3-carboxamide] | 6.89 ppm | 4.95 ppm | 1.799 ppm | 77.5% | 84%
